# Assay results as given in publication PMC6910976 (ACS infectious diseases, 2019).
# Tests used:
# Assay in all cases: UPLC-high resolution MS of intact protein
# Assay type in all cases: binding
# Conditions in all cases: covalent; 2 uM enzyme, 50 uM drug, 25 mM Tris pH 8.0, 5 h, 20 °C
# LdtA = target: T1, LdtA (Mycolicibacterium smegmatis, UniProt A0QY44)
# T1 sequence (A0QY44 41-259): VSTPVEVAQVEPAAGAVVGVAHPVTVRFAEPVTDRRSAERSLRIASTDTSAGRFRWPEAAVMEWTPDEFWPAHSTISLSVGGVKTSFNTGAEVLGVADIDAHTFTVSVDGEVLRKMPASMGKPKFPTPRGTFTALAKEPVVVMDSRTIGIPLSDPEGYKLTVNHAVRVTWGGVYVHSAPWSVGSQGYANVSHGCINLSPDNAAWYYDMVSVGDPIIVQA
# LdtF = target: T2, LdtF (Mycolicibacterium smegmatis, UniProt A0QS24)
# T2 sequence (A0QS24 31-420): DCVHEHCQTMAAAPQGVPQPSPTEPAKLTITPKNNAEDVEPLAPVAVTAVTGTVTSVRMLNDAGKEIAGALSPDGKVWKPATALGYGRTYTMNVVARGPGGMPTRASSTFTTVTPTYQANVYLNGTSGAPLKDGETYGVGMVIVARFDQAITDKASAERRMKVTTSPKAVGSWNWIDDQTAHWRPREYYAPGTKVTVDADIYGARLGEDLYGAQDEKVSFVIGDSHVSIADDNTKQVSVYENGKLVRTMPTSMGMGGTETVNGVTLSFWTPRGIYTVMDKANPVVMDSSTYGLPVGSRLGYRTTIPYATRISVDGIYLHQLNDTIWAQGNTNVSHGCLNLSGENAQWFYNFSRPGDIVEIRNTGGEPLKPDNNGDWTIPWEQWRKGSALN
# LdtB = target: T3, LdtB (Mycolicibacterium smegmatis, UniProt A0R1G6)
# T3 sequence (A0R1G6 27-400): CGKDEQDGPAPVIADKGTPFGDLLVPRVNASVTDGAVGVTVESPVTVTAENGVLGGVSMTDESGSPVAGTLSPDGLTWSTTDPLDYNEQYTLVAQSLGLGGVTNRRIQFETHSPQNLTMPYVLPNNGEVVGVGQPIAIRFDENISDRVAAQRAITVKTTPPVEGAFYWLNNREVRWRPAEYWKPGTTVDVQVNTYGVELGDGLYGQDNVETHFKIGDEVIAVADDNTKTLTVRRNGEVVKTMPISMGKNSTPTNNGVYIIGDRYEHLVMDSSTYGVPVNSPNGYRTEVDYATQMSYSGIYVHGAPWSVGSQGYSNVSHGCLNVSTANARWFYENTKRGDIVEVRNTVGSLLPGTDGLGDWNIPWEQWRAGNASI
SMILES,UPLC-high resolution MS of intact protein (LdtA),UPLC-high resolution MS of intact protein (LdtF),UPLC-high resolution MS of intact protein (LdtB)
C[C@@H](O)[C@H]1C(=O)N2C(C(=O)[O-])=C(SC3Cn4cnc[n+]4C3)[C@H](C)[C@H]12 (stereo partly shown) [biapenem],"fully acylated by the (carba)penems faropenem, biapenem, doripenem, and meropenem","small amounts of apo-LdtF remained following incubation with biapenem, doripenem, and faropenem","fully acylated by the (carba)penems faropenem, biapenem, doripenem, and meropenem"
C[C@@H](O)[C@H]1C(=O)N2C(C(=O)O)=C(S[C@@H]3CN[C@H](CNS(N)(=O)=O)C3)[C@H](C)[C@H]12 [doripenem],–,"small amounts of apo-LdtF remained following incubation with biapenem, doripenem, and faropenem",–
C[C@@H](O)[C@H]1C(=O)N2C(C(=O)O)=C([C@H]3CCCO3)S[C@H]12 [faropenem],"fully acylated by the (carba)penems faropenem, biapenem, doripenem, and meropenem","small amounts of apo-LdtF remained following incubation with biapenem, doripenem, and faropenem","fully acylated by the (carba)penems faropenem, biapenem, doripenem, and meropenem"
C[C@@H](O)[C@H]1C(=O)N2C(C(=O)O)=C(S[C@@H]3CN[C@H](C(=O)N(C)C)C3)[C@H](C)[C@H]12 [meropenem],"fully acylated by the (carba)penems faropenem, biapenem, doripenem, and meropenem",only meropenem completely acylates LdtF under the same conditions,"fully acylated by the (carba)penems faropenem, biapenem, doripenem, and meropenem"
